Patent US6552066B1, “Protein tyrosine kinase inhibitors for treating osteoarthritis” (priority 1995, dated 2003)

Key:
[1] = tested on: aggrecanase cleavage of aggrecan (230K fragment); assay: Aggrecanase neoepitope in IL-1-stimulated chondrocytes, BC-3 antibody immunoblot; format: cell-based, bovine
Experimental: Primary bovine articular chondrocytes from calf adio-carpal joints were isolated and cultured as above in Example 1, up to and including the addition of the following protein kinase inhibitors: 1) Protein kinase A (PKA) inhibitors; 0.5 μM H88 (Seikagaku Corp.), 0.5 μM H89 (Seikagaku Corp.); 2) Protein kinase C (PKC) inhibitors; 0.5 μM Calphostin C (Calbiochem), 1.0 μM Chelerythrine (Calbiochem); 3) CA^2+/Calmodulin Kinase II inhibitor; 5.0 μM KN93 (Seikagaku Corp.); 4) Protein tyrosine kinase (PTK) inhibitors; 50 μM Genistein (Calbiochem), 10 μM Herbimycin A (Calbiochem). After the 24 hour IL-1α incubation, the media of each sample was measured, and collected on ice in the presence of the protease inhibitors EGTA (5 mM), Pefaloc (1 mM), pepstatin (1 μg/ml), and NEM (5 mM). Media were concentrated approximately 40 fold using a Centriprep-10 ultrafiltration device (Amicon).
Proteoglycans contained within the media were deglycosylated by incubations with chondroitinase ABC, keratinase, and keratinase II following the procedure of Sandy et al. J Biol Chem (1991) 266:8683-8685 and Sandy et al. J. Clin Invest (1992) 89:1512-1516. Samples of deglycosylated media were subjected to 4-15% gradient SDS-PAGE and transferred to nitrocellulose membranes (2 ml-worth and 6 ml-worth of media were used for 2-B-6 and BC-3 immunoblotting, respectively.) The membranes were blocked with 1% nonfat dry milk and 1% BSA, and then incubated in either the BC-3 or 2-B-6 primary monoclonal antibody for 1 hour. The 2-B-6 antibody detects chondroitin sulfate stubs on chondroitinase-treated proteoglycans (both intact and degradation products. BC-3 antibody detects “ARGSV . . . ,” the new N-terminus (“neoepitope”) resulting from cleavage of aggrecan interglobular domain at Glu^373/ALA^374 by aggrecanase. It is of note to mention that the BC-3 and 2-B-6 antibodies were of low sensitivity. Following 3 washes, membranes were incubated in either alkaline phosphatase-conjugated goat anti-mouse (for the 2-B-6 blot) or biotinylated goat anti-mouse (for the BC-3 blot); followed by alkaline phosphatase-conjugated streptavidin/biotin complex). After washing 3 times, immunoreactive proteins were detected using NBT/BCIP (Sigma) colorimetric substrate.

[2] = tested on: IL-1-stimulated release of radiolabelled proteoglycan from bovine cartilage explants; assay: Bovine cartilage explant assay with rhIL-1α and plasminogen (35S-GAG release); format: cell-based; conditions: Bos taurus, rhIL-1α 5 ng/mL, plasminogen 0.4 μM
Text: A tissue culture assay was used to measure the ability of the compounds of the present invention to slow the degradation of the extracellular matrix by metalloproteinases. This assay measured the amount of ^35S-glycosaminoglycan (^35S-GAG) released from labeled bovine cartilage explants.
Knee joints from a 1 to 3 week old calf were obtained immediately after sacrifice from the Abattoir and then transported on ice. The intact joints were washed well with tap water and soaked in 50% (v/v) Povidine iodine solution, obtained from Burre National, Inc., Baltimore, Md. All subsequent steps were performed in a laminar flow tissue culture hood using standard sterile technique. The joint was immobilized in a shank holder and the joint capsule was cut open to expose the articular cartilage. […]
Individual disks obtained were transferred to a tissue culture flask containing about 100 mL fresh media. […] When ready to label, the old media was replaced with 50 mL fresh media containing about 1.2 mCi ^35S-Sodium Sulfate. […]
The TC plates were then placed in the incubator and cultured for 3-4 days (initial incubation with rhIL-1α alpha takes at least 3 days to stimulate endogenous metalloproteinases). A 50 μL aliquot of media from each TC plate was saved and counted. […]

| Compound | BC-3 immunoreactive band at approximately 230K (aggrecanase-mediated fragment) ([1]; 50 μM) | BC-3 immunoreactive band at approximately 230K (aggrecanase-mediated fragment) ([1]; 10 μM) | inhibition at 2 µM [2] [%] |
| --- | --- | --- | --- |
| O=c1c(-c2ccc(O)cc2)coc2cc(O)cc(O)c12 [Genistein] | not present |  |  |
| CO[C@H]1[C@@H](OC)C[C@H](C)[C@@H](OC)C2=CC(=O)C=C(NC(=O)/C(C)=C/C=C\[C@H](OC)[C@@H](OC(N)=O)/C(C)=C/[C@@H]1C)C2=O [Herbimycin A] |  | not present | ~70 |
